Some test systems named below: HS 578T breast; K-562 leukemia; BT-549 breast; UO-31 renal; SK-MEL-5 melanoma; RPMI-8226 leukemia; HCT-15 colon; UACC-257 melanoma; PC-3 prostate; NCI-H226 lung.
What all share (test): NCI anticancer screen, dose series, 48 h

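Exposure lasted 48 hours, with cells grown in 96-well plates and compounds tested at five concentrations. At the TGI there is no net growth.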

Regarding `Cc1ccc(NC(c2ccccc2)P(=O)(c2ccccc2)c2ccccc2)cc1` (stereo not given), the TGI with HS 578T breast, in the test on K-562 leukemia, in the test with BT-549 breast, with UO-31 renal, in the test with SK-MEL-5 melanoma and in the test with RPMI-8226 leukemia was above 100 µM in each case. The TGI in the test on HCT-15 colon, with UACC-257 melanoma, with PC-3 prostate and in the test on NCI-H226 lung was above 100 µM in each case.
`CCOC(=O)c1c(NS(=O)(=O)c2ccccc2)sc2c1CCCC2`: the TGI in the test with HS 578T breast, with K-562 leukemia, with BT-549 breast, with UO-31 renal, with SK-MEL-5 melanoma and in the test on RPMI-8226 leukemia was above 100 µM each time. Moreover, the TGI in the test with HCT-15 colon, in the test on UACC-257 melanoma, in the test with PC-3 prostate and with NCI-H226 lung was above 100 µM in each case.
Regarding `CNC(=O)OC1/C(C)=C\C(C)C(O)C(OC)CC(C)CC2=C(OC)C(=O)C=C(C2=O)N(C)C(=O)/C(C)=C/C=C\C1OC` (stereo not given), the TGI in the test with HS 578T breast was 15.3 µM; in the test on K-562 leukemia, 12.5 µM; in the test on BT-549 breast, 18.5 µM; with UO-31 renal it was 31.7 µM; in the test on SK-MEL-5 melanoma, 21.5 µM; with RPMI-8226 leukemia, 13.2 µM. Further, the TGI in the test with HCT-15 colon turned out to be 17.5 µM; in the test with UACC-257 melanoma it was 19 µM; in the test on PC-3 prostate, 26 µM; in the test on NCI-H226 lung it was 36.7 µM.
On to `COc1ccc2nc(-c3ccc(N)cc3)sc2c1`, for which the TGI in the test with HS 578T breast, with K-562 leukemia, with BT-549 breast, in the test on UO-31 renal, in the test with SK-MEL-5 melanoma and with HCT-15 colon was above 100 µM throughout. The TGI with UACC-257 melanoma, in the test with PC-3 prostate and in the test on NCI-H226 lung was above 100 µM throughout.
With `Cc1ccc([N+](=O)[O-])cc1S(=O)(=O)Nc1ccc(C2=NN(S(=O)(=O)c3cc([N+](=O)[O-])ccc3C)C(c3ccccc3O)C2)cc1` (stereo not given), the TGI in the test on K-562 leukemia, with BT-549 breast, with UO-31 renal, in the test with SK-MEL-5 melanoma, in the test with RPMI-8226 leukemia and in the test on HCT-15 colon was above 100 µM each time. The TGI in the test with UACC-257 melanoma, in the test with PC-3 prostate and in the test on NCI-H226 lung was above 100 µM throughout.
Consider `CC(C)=CC(=O)c1[nH]c2ccccc2c1CC(=O)NCCc1cnc[nH]1`, for which the TGI in the test with HS 578T breast, in the test with K-562 leukemia, with BT-549 breast, in the test with UO-31 renal, with SK-MEL-5 melanoma and in the test on HCT-15 colon was above 100 µM in each case. For the same compound, the TGI in the test on UACC-257 melanoma, in the test on PC-3 prostate and in the test on NCI-H226 lung was above 100 µM throughout.
In the case of `CN(C)CCCn1c(-c2ccc(Br)cc2)csc1=Nc1ccccc1`, the TGI in the test with K-562 leukemia turned out to be 47.8 µM; in the test on BT-549 breast, 31.6 µM; with UO-31 renal, 30.2 µM; in the test with RPMI-8226 leukemia it was 44.4 µM; in the test on HCT-15 colon it was 71 µM; in the test on UACC-257 melanoma, 29.8 µM. Besides, the TGI in the test on PC-3 prostate was found to be 25.2 µM; in the test with NCI-H226 lung, 27.3 µM.
As to `COc1cc2c(c(O)c1OC)C(O)C1CCC(=O)N1C2c1ccc2c(c1)OCO2` (stereo not given), the TGI in the test with K-562 leukemia, in the test on BT-549 breast, in the test with UO-31 renal, with HCT-15 colon, in the test on UACC-257 melanoma and in the test with PC-3 prostate was above 100 µM throughout. The same compound returned a TGI with NCI-H226 lung above 100 µM.
Regarding `COc1ccc2cc(CNCCCCCCNC(=O)Nc3cccc4ccccc34)ccc2c1`, the TGI with HS 578T breast, in the test with K-562 leukemia, with BT-549 breast, with SK-MEL-5 melanoma, in the test on RPMI-8226 leukemia and in the test with HCT-15 colon was above 100 µM each time. Moreover, the TGI in the test on UACC-257 melanoma, with PC-3 prostate and in the test with NCI-H226 lung was above 100 µM in each case.
Consider `O=C1OCOC2(CCCC2)C1c1ccccc1` (stereo not given), for which the TGI in the test with HS 578T breast, in the test with K-562 leukemia, in the test with UO-31 renal, with SK-MEL-5 melanoma, in the test on RPMI-8226 leukemia and with HCT-15 colon was above 100 µM in each case. Moreover, the TGI in the test on UACC-257 melanoma, in the test on PC-3 prostate and in the test on NCI-H226 lung was above 100 µM in each case.
Turning to `c1cc(CSP234N5CCN2CCN3CCN4CC5)cc(CSP234N5CCN2CCN3CCN4CC5)c1`, the TGI was 69.3 µM with HS 578T breast; above 100 µM in the test on K-562 leukemia; 51.6 µM in the test with BT-549 breast; 39.3 µM with UO-31 renal; 45.5 µM with SK-MEL-5 melanoma; above 100 µM with RPMI-8226 leukemia. For the same compound, the TGI in the test on HCT-15 colon was 70.8 µM; in the test with UACC-257 melanoma it was 34.9 µM; with PC-3 prostate, above 100 µM.
As to `C/C(=C\COP(=O)(O)OP(=O)(O)O)CC/C=C(\C)CNc1c(F)c(F)c(F)c(F)c1F`, the TGI in the test with HS 578T breast, with K-562 leukemia, in the test on UO-31 renal, in the test with SK-MEL-5 melanoma, with HCT-15 colon and in the test on UACC-257 melanoma was above 100 µM throughout. The TGI in the test on PC-3 prostate and in the test on NCI-H226 lung was above 100 µM throughout.
`COc1cc2c(cc1C)NC(=O)/C2=C/c1c(Cl)[nH]c2ccccc12`: the TGI in the test on HS 578T breast is 28.7 µM; with K-562 leukemia, above 100 µM; in the test on BT-549 breast, 9.35 µM; with UO-31 renal, 25.8 µM; in the test with SK-MEL-5 melanoma, 11.4 µM; in the test on RPMI-8226 leukemia, above 100 µM. Further, the TGI with HCT-15 colon turned out to be 14.6 µM; with UACC-257 melanoma, 22.8 µM; with PC-3 prostate, 18.3 µM.
As to `COc1ccc(/C=C(\C#N)c2ccccn2)cc1OC`, the TGI is above 100 µM in the test on K-562 leukemia; 45.4 µM in the test with BT-549 breast; 82.2 µM in the test on UO-31 renal; above 100 µM in the test on SK-MEL-5 melanoma; above 100 µM in the test on RPMI-8226 leukemia; above 100 µM with HCT-15 colon. Moreover, the TGI was above 100 µM in the test with UACC-257 melanoma, 65.7 µM in the test with PC-3 prostate and 95.8 µM in the test with NCI-H226 lung.

Values taken from PubChem BioAssay (NCI).
